Reference: ChEMBL document CHEMBL4706498, “Rosuvastatin based novel 3-substituted isocoumarins / 3-alkylidenephthalides: Ultrasound assisted synthesis and identification of new anticancer agents” (Eur J Med Chem, 2020)
Activity calls are given as the source filed them. The calls are words filed in the database; no cut-off is given here.

Assays:
[1] = Cytotoxicity against human HEK cells assessed as inhibition of cell growth at 10 uM measured after 24 hrs by MTT assay (reference value: 0.11%); format: cell-based
HCT-116 [2] = experiment: Cytotoxicity against human HCT-116 cells assessed as inhibition of cell growth at 10 uM measured after 24 hrs by MTT assay (reference value: 0.17%); format: functional
HepG2 = experiment: Cytotoxicity against human HepG2 cells assessed as inhibition of cell growth at 10 uM measured after 24 hrs by MTT assay (reference value: 0.21%); format: functional
PA-1 [3] = experiment: Cytotoxicity against human PA-1 cells assessed as inhibition of cell growth at 10 uM measured after 24 hrs by MTT assay (reference value: 0.19%); format: functional
[4] = target: T1, RAC-alpha serine/threonine-protein kinase (Homo sapiens, UniProt P31749)
Description: Inhibition of Akt-1 (unknown origin)

[5] = Toxicity in 7 days post fertilize zebrafish embryo assessed as death at 1 to 100 uM after 24 hrs; set-up: species or system Danio rerio; details: in vivo, dose 1-100 µM
PANC-1 [6] = experiment: Inhibition of human Akt in human PANC-1 cells assessed as inhibition of Akt phosphorylation at 50 uM measured after 18 hrs by Western blot assay; format: cell-based
PANC-1 [7] = experiment: Cytotoxicity against human PANC-1 cells assessed as decrease in cell viability at 50 uM measured after 18 hrs by MTT assay; format: functional, cell-based
HCT-116 [8] = experiment: Cytotoxicity against human HCT-116 cells assessed as inhibition of cell growth measured after 24 hrs by MTT assay; format: functional, cell-based; details: HCT-116, 24 h
PA-1 [9] = experiment: Cytotoxicity against human PA-1 cells assessed as inhibition of cell growth measured after 24 hrs by MTT assay; format: functional, cell-based; details: PA-1, 24 h
[10] = target: RAC-beta serine/threonine-protein kinase (Homo sapiens) (UniProt P31751); experiment: Binding affinity to Akt2 (unknown origin)
[11] = Hepatotoxicity in 4 days post fertilize zebra fish embryo measured 7 days post fertilization at 1 to 100 uM; format: toxicity, Danio rerio; details: zebrafish, dose 1-100 µM
[12] = Toxicity in 7 days post fertilize zebrafish embryo assessed as morphological abnormalities or atrioventricular blocks measured after 24 hrs by bright field microscopic analysis; set-up: species or system Danio rerio; details: in vivo, dose 1-100 µM
[13] = Inhibition of Protein kinase A (unknown origin); set-up: species or system Homo sapiens
[14] = Toxicity in zebra fish embryo measured 5 days post fertilization by measuring teratogenicity at 1 to 100 uM; set-up: species or system Danio rerio; details: zebrafish, 120 h, dose 1-100 µM, time 5 day
[15] = target: T1, RAC-alpha serine/threonine-protein kinase; experiment: Binding affinity to Akt1 (unknown origin)
[16] = Stability of compound assessed as parent compound remaining after 60 mins in rat liver microsomes; format: ADME, Microsome; details: read-out: Stabilty
[17] = Toxicity in 7 days post fertilize zebrafish embryo assessed as morphological abnormalities at 1 to 100 uM after 24 hrs; set-up: species or system Danio rerio; details: in vivo, dose 1-100 µM
[18] = Microsomal stability in rat liver microsomes assessed as half life; format: ADME, Microsome
PANC-1 [19] = experiment: Inhibition of human Akt in human PANC-1 cells assessed as cell growth arrest at 50 uM measured after 18 hrs by Western blot assay; format: cell-based
[20] = Microsomal stability in rat liver microsomes assessed as intrinsic clearance; format: ADME, Microsome; details: read-out: CLH

T1 sequence (P31749 whole entry): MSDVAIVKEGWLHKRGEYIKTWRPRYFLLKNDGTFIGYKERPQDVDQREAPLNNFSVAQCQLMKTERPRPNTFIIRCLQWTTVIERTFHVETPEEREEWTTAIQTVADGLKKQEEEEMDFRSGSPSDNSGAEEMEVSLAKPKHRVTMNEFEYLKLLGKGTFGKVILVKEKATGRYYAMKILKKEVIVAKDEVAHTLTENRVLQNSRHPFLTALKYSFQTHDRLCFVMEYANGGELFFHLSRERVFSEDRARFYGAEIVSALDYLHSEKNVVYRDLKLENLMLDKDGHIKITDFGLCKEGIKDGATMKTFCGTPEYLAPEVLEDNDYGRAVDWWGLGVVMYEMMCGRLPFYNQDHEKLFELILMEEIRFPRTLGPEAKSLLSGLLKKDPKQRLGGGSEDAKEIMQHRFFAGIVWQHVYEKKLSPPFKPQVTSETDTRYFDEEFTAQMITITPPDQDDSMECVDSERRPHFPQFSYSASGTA
Sequence of RAC-beta serine/threonine-protein kinase (Homo sapiens) (P31751 whole entry): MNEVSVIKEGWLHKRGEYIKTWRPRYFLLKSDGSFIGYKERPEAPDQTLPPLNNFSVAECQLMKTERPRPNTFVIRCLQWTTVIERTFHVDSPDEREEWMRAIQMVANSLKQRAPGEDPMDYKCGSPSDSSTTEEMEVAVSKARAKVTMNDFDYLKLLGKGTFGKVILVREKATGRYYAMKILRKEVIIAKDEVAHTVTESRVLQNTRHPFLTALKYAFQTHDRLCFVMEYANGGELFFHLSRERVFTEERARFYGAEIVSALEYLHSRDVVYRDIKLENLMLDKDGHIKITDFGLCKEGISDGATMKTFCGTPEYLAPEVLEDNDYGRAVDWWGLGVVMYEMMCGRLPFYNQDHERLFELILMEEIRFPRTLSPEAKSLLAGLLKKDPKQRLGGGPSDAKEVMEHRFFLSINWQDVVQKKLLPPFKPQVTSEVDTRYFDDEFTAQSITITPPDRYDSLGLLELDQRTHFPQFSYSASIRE

Row | SMILES | inhibition at 24 h, 10 µM [1] | inhibition at 10 µM (HCT-116 [2]) | inhibition at 10 µM (HepG2) | inhibition at 10 µM (PA-1 [3]) | also measured
1 | CC(C)c1nc(N(C)S(C)(=O)=O)nc(-c2ccc(F)cc2)c1COCc1cc2cc(Cl)ccc2c(=O)o1 | 1.3% | 19.8% | 10.9% | 16.8% | –
2 | COc1ccc2cc(COCc3c(-c4ccc(F)cc4)nc(N(C)S(C)(=O)=O)nc3C(C)C)oc(=O)c2c1 | 3.7% | 43.2% | 39.1% | 38.3% | –
3 | CC(C)c1nc(N(C)S(C)(=O)=O)nc(-c2ccc(F)cc2)c1COC/C=C1\OC(=O)c2ccc(F)cc21 | 1.7% | 19.8% | 27.5% | 15.1% | –
4 | Cc1cc(Cl)cc2c1/C(=C/COCc1c(-c3ccc(F)cc3)nc(N(C)S(C)(=O)=O)nc1C(C)C)OC2=O | 2.2% | 16% | 14.1% | 18.4% | –
5 | CC(C)c1nc(N(C)S(C)(=O)=O)nc(-c2ccc(F)cc2)c1COC/C=C1\OC(=O)c2ccccc21 | 2.1% | 20.2% | 19.3% | 52.3% | –
6 | CC(C)c1nc(N(C)S(C)(=O)=O)nc(-c2ccc(F)cc2)c1COCc1cc2ccc(F)cc2c(=O)o1 | 3.1% | 36.9% | 33.2% | 28.9% | –
7 | COc1ccc2c(c1)C(=O)O/C2=C\COCc1c(-c2ccc(F)cc2)nc(N(C)S(C)(=O)=O)nc1C(C)C | 3.2% | 33.5% | 39.3% | 46.5% | –
8 | COc1cc2cc(COCc3c(-c4ccc(F)cc4)nc(N(C)S(C)(=O)=O)nc3C(C)C)oc(=O)c2cc1OC | 4.9% | 65.6% | 48.7% | 68.4% | IC50 [4]: 4.3 µM; Activity [5]: Non-Toxic; inhibition (PANC-1 [6]): Active; inhibition (PANC-1 [7]): Active; IC50 (HCT-116 [8]): 0.00451 µM; IC50 (PA-1 [9]): 0.00076 µM; Activity [10]: -10.6 kcal/mol; Activity [11]: Non-Toxic; Activity [12]: Non-Toxic; IC50 [13]: > 10 µM; Activity [14]: Non-Toxic; Activity [15]: -11.3 kcal/mol; remaining at 1 h [16]: 47.2%; Activity [17]: Non-Toxic; half-life [18]: 1.83 h; inhibition (PANC-1 [19]): Active; microsomal CLint [20]: 26.3 µL/min/mg
9 | CC(C)c1nc(N(C)S(C)(=O)=O)nc(-c2ccc(F)cc2)c1COC/C=C1\OC(=O)c2cc(F)ccc21 | 3.1% | 18.3% | 26.7% | 18.9% | –
10 | COc1ccc2c(=O)oc(COCc3c(-c4ccc(F)cc4)nc(N(C)S(C)(=O)=O)nc3C(C)C)cc2c1 | 3.4% | 41.8% | 39.7% | 40.1% | –
11 | CC(C)c1nc(N(C)S(C)(=O)=O)nc(-c2ccc(F)cc2)c1COC/C=C1\OC(=O)c2cc(Cl)ccc21 | 2.9% | 24.7% | 21.3% | 27% | –
12 | CC(C)c1nc(N(C)S(C)(=O)=O)nc(-c2ccc(F)cc2)c1COC/C=C1\OC(=O)c2cc(Br)ccc21 | 1.9% | 13.6% | 20.4% | 21.8% | –
13 | CC(C)c1nc(N(C)S(C)(=O)=O)nc(-c2ccc(F)cc2)c1COCc1cc2ccc(Br)cc2c(=O)o1 | 2.8% | 21.7% | 23.5% | 18.7% | –
14 | Cc1ccc2cc(COCc3c(-c4ccc(F)cc4)nc(N(C)S(C)(=O)=O)nc3C(C)C)oc(=O)c2c1 | 3.2% | 26% | 24.1% | 28.4% | –
15 | Cc1ccc2c(c1C)/C(=C/COCc1c(-c3ccc(F)cc3)nc(N(C)S(C)(=O)=O)nc1C(C)C)OC2=O | 1.9% | 18.9% | 21.6% | 19.9% | –
16 | COc1cccc2c1C(=O)c1c(O)c3c(c(O)c1C2=O)C[C@@](O)(C(=O)CO)C[C@@H]3O[C@H]1C[C@H](N)[C@H](O)[C@H](C)O1 [DOXORUBICIN] | – | 61% | 57% | 81.3% | Activity [10]: -8.6 kcal/mol; Activity [15]: -8.8 kcal/mol
17 | COc1cc2c(cc1OC)/C(=C/COCc1c(-c3ccc(F)cc3)nc(N(C)S(C)(=O)=O)nc1C(C)C)OC2=O | 4.3% | 53.7% | 50.1% | 69.8% | IC50 [4]: 3.7 µM; Activity [5]: Non-Toxic; inhibition (PANC-1 [6]): Active; inhibition (PANC-1 [7]): Active; Activity [10]: -9.9 kcal/mol; Activity [11]: Non-Toxic; Activity [12]: Non-Toxic; IC50 [13]: > 10 µM; Activity [14]: Non-Toxic; Activity [15]: -10.9 kcal/mol; Activity [17]: Non-Toxic; inhibition (PANC-1 [19]): Active
18 | CC(C)c1nc(N(C)S(C)(=O)=O)nc(-c2ccc(F)cc2)c1COC/C=C1\OC(=O)c2ccc(Cl)cc21 | 3.3% | 29.3% | 12.6% | 19.4% | –
19 | COc1cccc2c1/C(=C/COCc1c(-c3ccc(F)cc3)nc(N(C)S(C)(=O)=O)nc1C(C)C)OC2=O | 4.1% | 25.4% | 26.5% | 24.3% | –
20 | CC(C)c1nc(N(C)S(C)(=O)=O)nc(-c2ccc(F)cc2)c1COC/C=C1\OC(=O)c2cccc(Cl)c21 | 3.7% | 25.5% | 22.1% | 26.8% | –
21 | CC(C)c1nc(N(C)S(C)(=O)=O)nc(-c2ccc(F)cc2)c1COCc1cc2ccc(Cl)cc2c(=O)o1 | 2.3% | 23.4% | 20.6% | 20.9% | –
22 | COc1ccc2c(c1)/C(=C/COCc1c(-c3ccc(F)cc3)nc(N(C)S(C)(=O)=O)nc1C(C)C)OC2=O | 3.8% | 35.1% | 38.6% | 38.3% | –
23 | Cc1ccc2c(c1)C(=O)O/C2=C\COCc1c(-c2ccc(F)cc2)nc(N(C)S(C)(=O)=O)nc1C(C)C | 1.6% | 24.3% | 29.6% | 22.5% | –
